According to PubChem BioAssay (NCI):
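Five concentrations, 48 hours, 96-well plates. Here, GI50 denotes the concentration required for 50% inhibition of growth. At the TGI there is no net growth.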

Legend:
Assay in all cases: NCI anticancer screen, dose series, 48 h
OVCAR-8 ovarian = system: OVCAR-8 ovarian
HT29 colon = system: HT29 colon
HL-60(TB) leukemia = system: HL-60(TB) leukemia
SF-539 CNS = system: SF-539 CNS
SR leukemia = system: SR leukemia
EKVX NSCLC = system: EKVX NSCLC
NCI-H460 lung = system: NCI-H460 lung
K-562 leukemia = system: K-562 leukemia
COLO 205 colon = system: COLO 205 colon

Row | Structure (SMILES) | TGI (OVCAR-8 ovarian) [µM] | TGI (HT29 colon) [µM] | TGI (HL-60(TB) leukemia) [µM] | TGI (SF-539 CNS) [µM] | TGI (SR leukemia) [µM] | TGI (EKVX NSCLC) [µM] | TGI (NCI-H460 lung) [µM] | TGI (K-562 leukemia) [µM] | TGI (COLO 205 colon) [µM] | GI50 (OVCAR-8 ovarian) [µM] | GI50 (HT29 colon) [µM] | GI50 (HL-60(TB) leukemia) [µM] | GI50 (SF-539 CNS) [µM] | GI50 (SR leukemia) [µM] | GI50 (NCI-H460 lung) [µM] | GI50 (K-562 leukemia) [µM] | GI50 (COLO 205 colon) [µM]
1 | Cc1cc(NCCCCCCCCNc2cc(C)nc3cc(N)ccc23)c2ccc(N)cc2n1 | 52.1 | 75 | 4.88 | 41.2 | > 100 | 61 | 49.5 | 16.3 | 31.2 | – | – | – | – | – | – | – | –
2 | COC(=O)CC(NC(=O)OCc1ccccc1)C(C(C)=O)C(=O)OCc1ccccc1 (stereo not drawn) | > 31.6 | – | > 31.6 | > 31.6 | > 100 | > 31.6 | > 31.6 | > 31.6 | > 31.6 | – | – | – | – | – | – | – | –
3 | Cc1cn(C2CC(O)C(COC(=O)c3ccccc3)O2)c(=O)[nH]c1=O (stereo not drawn) | > 100 | > 100 | > 100 | > 100 | > 100 | – | > 100 | > 100 | > 100 | – | – | – | – | – | – | – | –
4 | O=C1C2Nc3ccccc3SC2C(=O)N1c1ccc(Br)cc1 (stereo not drawn) | > 100 | > 100 | – | > 100 | – | > 100 | > 100 | > 100 | > 100 | – | – | – | – | – | – | – | –
5 | CC(=O)OCC1OC(n2cc(F)c(=O)[nH]c2=O)C(NC(=O)N(CCCl)N=O)C(OC(C)=O)C1OC(C)=O (stereo not drawn) | > 100 | > 100 | > 100 | > 100 | > 100 | – | > 100 | > 100 | > 100 | – | – | – | – | – | – | – | –
6 | COc1cc(/C=C\c2cc(OC)c(OC)c(OC)c2)cc(N/C=C\C(=O)c2ccc(OC(F)(F)F)cc2)c1OC | > 100 | 16.5 | 8.08 | 5.92 | 41.1 | – | 36.4 | > 100 | 9.37 | 4.59 | 3.07 | 2.8 | 2.21 | 2.75 | 3.34 | 2.93 | 2.98
7 | O=C(/C=C/c1cc(Cl)cc(Cl)c1O)c1cccc(O)c1 | > 100 | > 100 | 93.9 | 73.3 | 59.8 | > 100 | > 100 | > 100 | 32.7 | – | – | – | – | – | – | – | –
8 | COC(=O)CCC(NC(=S)N/N=C(\C)c1cnc2ccccc2n1)C(=O)OC (stereo not drawn) | > 100 | 31.3 | 9.3 | > 100 | 42.8 | > 100 | > 100 | > 100 | 5.37 | – | – | – | – | – | – | – | –
9 | COC(=O)C(C(=O)C(=O)Nc1c(C)cccc1C)c1cnc2ccccc2n1 (stereo not drawn) | > 100 | > 100 | > 100 | – | > 100 | > 100 | > 100 | > 100 | > 100 | – | – | – | – | – | – | – | –
10 | O=C(N/C(=C\c1ccc(Cl)cc1)c1nc2ccccc2[nH]1)c1ccccc1 | 52.8 | 81.3 | – | 31.1 | – | 58.1 | 49.7 | 38.8 | 35.6 | – | – | – | – | – | – | – | –
11 | Cc1nc(-n2nc(-c3ccccc3)cc2-c2ccccc2)sc1C(=O)/C=C/c1ccc(/C=C/C(=O)c2sc(-n3nc(-c4ccccc4)cc3-c3ccccc3)nc2C)cc1 | > 100 | 44.8 | > 100 | 33.7 | 72.4 | > 100 | 95.7 | > 100 | 39.1 | – | – | – | – | – | – | – | –
